This note sets out measurements from the SangsterLogP compilation.

The logP is the decadic logarithm of the partition coefficient of the neutral form, usually between octanol and water. A lower logP goes with lower lipophilicity.

`CSc1nnc(C2CCCCC2)c(=O)n1N`: the logP amounted to 2.09.
As for `Cn1c(S)nnc(-c2cc(Cl)cc(Cl)c2)c1=O`, the figure is 3.43; as for `COc1nnc(C(C)(C)C)c(=O)n1N`, 1.31; as for `CNc1nnc(-c2ccc(OC(F)(F)F)cc2)c(=O)[nH]1`, 1.86.
As for `CSc1nnc(-c2ccc(OC(F)(F)F)cc2)c(=O)[nH]1`, the figure is 2.35; as for `CCCc1nnc(SC)n(N)c1=O`, 1.19.
As for `Cn1c(S)nnc(-c2ccc(F)cc2)c1=O`, the figure is 2.38.
The compound `Cc1nnc(C(C)(C)C)c(=O)n1N` yielded a logP of 1.03.
For `CSc1nnc(CC(C)C)c(=O)n1N` the value was 1.53.
The compound `CNc1nnc(-c2ccc(F)c(Cl)c2)c(=O)n1C` yielded a logP of 1.6.
For `CNc1nnc(-c2ccc(OC(F)(F)F)c(Cl)c2)c(=O)n1C` the value was 2.35; for `CSc1nnc(C)c(=O)n1N`, 0.15; for `CCOc1cccc(-c2nnc(S)n(C)c2=O)c1`, 2.67.
For `Nn1c(S)nnc(-c2cc(Cl)cc(Cl)c2)c1=O` the value was 2.67; for `CNc1nnc(C(C)(C)C)c(=O)n1N`, 0.52.
For `CSc1nnc(C(C)C)c(=O)n1N` the value was 1.23; for `CCOc1cccc(-c2nnc(C)n(NC)c2=O)c1`, 1.91; for `CSc1nnc(C2CCOCC2)c(=O)n1N`, 1.07.
For the compound `CNc1nnc(-c2cc(Cl)cc(Cl)c2)c(=O)n1N`, the logP came out at 1.91.
As for `CSc1nnc(-c2cc(Cl)cc(Cl)c2)c(=O)n1N`, the figure is 3.02; as for `CN(C)c1nnc(C(C)(C)C)c(=O)n1C`, 1.07.
